Tested on: chow fed male Sprague-Dawley rats
Assay: Serum lipids, apolipoproteins and weight gain in chow fed male Sprague-Dawley rats after seven days of treatment
Assay type: in vivo, rat
Method: Illustrative compounds of the invention were administered daily at a dose of 100 mg/kg to chow fed male Sprague-Dawley rats for seven days in the morning by oral gavage in 1.5% carboxymethylcellulose/0.2% Tween-20 (dosing vehicle). Animals were weighed daily. Animals were allowed free access to rodent chow and water throughout the study. After the seventh dose, animals were sacrificed in the evening and blood serum was assayed for lipoprotein cholesterol profiles, serum triglycerides, total cholesterol VLDL, LDL, and HDL cholesterol, and the ratio of HDL cholesterol to that of VLDL plus LDL cholesterol, apolipoproteins A-I, C-II, C-III, and E by immunoelectrophoresis, and percent weight gain.
The five compounds were tested in two separate experiments. In each experiment, the experimental data were normalized against a control group of rats which received the dosing vehicle alone.

[1] = 100 mg/kg, 7 days, compared to control, FIG. 3
[2] = 100 mg/kg, 7 days, vs vehicle, FIG. 2
[3] = 100 mg/kg/day oral gavage, 7 days, normalized against vehicle control

**Q.** With `CC(C)(CO)CCCCOCCCCC(C)(C)CO` [Compound A, 6-(6-hydroxy-5,5-dimethylhexyloxy)-2,2-dimethyl-hexan-1-ol] as the molecule, how does the “elevation of apolipoprotein A-I” value [1] read?
**A.** The value was 16%.

**Q.** What about the “elevation of apolipoprotein E” value [1] of the same molecule?
**A.** Its value is 46%.

**Q.** What about the “reduction of apolipoprotein C-II” value [1] of the same molecule?
**A.** Its value is 20%.

**Q.** What about the “reduction of apolipoprotein C-III” value [1] of the same molecule?
**A.** Its value is 16%.

**Q.** And the “ratio of HDL to non-HDL cholesterol (VLDL plus LDL)” value (100 mg/kg, 7 days, control 2.6±0.2)?
**A.** The value was 6.2±1.0.

**Q.** And the “improvement in the ratio of HDL to non-HDL cholesterol” value (100 mg/kg, 7 days, vs control)?
**A.** The value was 2.44 fold.

**Q.** What about the “change in VLDL cholesterol” value (100 mg/kg, 7 days, vs vehicle) of the same molecule?
**A.** Its value is “no change”.

**Q.** And the “elevation in HDL cholesterol” value (100 mg/kg, 7 days, vs vehicle)?
**A.** The value was 49%.

**Q.** What about the “reduction in LDL cholesterol” value (100 mg/kg, 7 days, vs vehicle) of the same molecule?
**A.** Its value is 41%.

**Q.** What about the “elevation of total serum cholesterol” value [2] of the same molecule?
**A.** The value was 26%.

**Q.** What about the “reduction of serum triglycerides” value [2] of the same molecule?
**A.** Its value is 31%.

**Q.** And the “percentage body weight gain” value (100 mg/kg, after seven days, control 68.3±1.2%)?
**A.** The value was 63.4±1.9%.

**Q.** And the “HDL-Cholesterol (% change)” value [3]?
**A.** The value was “+21.1 % change”.

**Q.** And the “LDL-Cholesterol (% change)” value [3]?
**A.** Its value is −27.7 % change.

**Q.** What about the “Triglyceride (% change)” value [3] of the same molecule?
**A.** The value was “+7.6 % change”.

— US6506799B1, “Methods of treating cardiovascular diseases, dyslipidemia, dyslipoproteinemia, and hypertension with ether compounds” (Esperion Therapeutics, Inc., priority 1999, dated 2003)
